From the NIST ThermoML archive (doi:10.1021/je101144k)
± gives the expanded uncertainty stated by the source.

What was measured:
[1] = 101.33 kPa, Liquid; for viscosity: Concentric cylinders viscometry; for mass density: Pycnometric method
[2] = molar heat capacity at constant pressure; settings: 101.33 kPa, Liquid, Small sample (50 mg) DSC

NCCO [2-aminoethan-1-ol]
Settings | mass density, 303.15 K [kg/m3] | mass density, 313.15 K [kg/m3] | mass density, 323.15 K [kg/m3] | molar heat capacity at constant pressure, 303.15 K [J/K/mol] | molar heat capacity at constant pressure, 313.15 K [J/K/mol] | molar heat capacity at constant pressure, 323.15 K [J/K/mol] | viscosity, 303.15 K [mPa·s] | viscosity, 313.15 K [mPa·s] | viscosity, 323.15 K [mPa·s]
[1] | 1008.7 ± 1.3 | 1000.4 ± 1.3 | 992.5 ± 1.3 | – | – | – | 15.36 ± 0.32 | 10.26 ± 0.21 | 7.19 ± 0.15
[2] | – | – | – | 163.7 ± 3.7 | 167.98 ± 3.7 | 172.25 ± 3.7 | – | – | –
